Drawing on patent US20060258739A1, “Dihydrobenzofuran derivatives and uses therof” (Wyeth, priority 2005, published 2006), this text covers Ki and Kd for two compounds.

The test has as its target T1, human 5-hydroxytryptamine-2C (h5-HT2C) receptor (Homo sapiens, UniProt P28335).
T1 construct: expressed in transfected cells; host or cells: CHO (Chinese Hamster Ovary) cells; membrane preparation
T1 sequence (P28335 33-458): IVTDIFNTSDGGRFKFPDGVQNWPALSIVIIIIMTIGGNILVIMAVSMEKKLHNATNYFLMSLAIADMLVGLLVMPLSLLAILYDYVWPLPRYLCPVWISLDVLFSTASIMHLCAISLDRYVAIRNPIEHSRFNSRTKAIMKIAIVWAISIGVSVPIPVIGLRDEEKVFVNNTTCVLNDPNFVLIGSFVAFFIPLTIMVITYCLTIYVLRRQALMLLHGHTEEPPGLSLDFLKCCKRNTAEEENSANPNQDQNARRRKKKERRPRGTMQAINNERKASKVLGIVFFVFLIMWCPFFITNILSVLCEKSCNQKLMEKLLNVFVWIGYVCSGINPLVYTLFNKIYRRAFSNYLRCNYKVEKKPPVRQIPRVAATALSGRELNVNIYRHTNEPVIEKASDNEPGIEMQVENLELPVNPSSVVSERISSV
Nature of the test: [125I]DOI radioligand binding to membranes of CHO cells expressing the h5-HT2C receptor.

SMILES strings stand for the structures.

In the case of `CSc1ccc2c(c1)C(N1CCN(C)CC1)Cc1ccccc1S2` (centres unmarked) [Methiothepin], the Ki (displacement of [125I]DOI, CHO cell membranes, room temperature 60 min, read-out: Ki (95% confidence interval)) worked out at 4.6 nM.
For the compound `COc1cc(CC(C)N)c(OC)cc1I` (centres unmarked) [[^125I] DOI], for the setting “read-out: dissociation constant, KD of [125I] DOI, saturation binding with increasing concentrations of [125I]DOI”, the Kd is 0.4 nM.

One may read the Ki as a measure of affinity in units of concentration, obtained from inhibition or displacement. What is called Kd is the equilibrium constant for the complex coming apart.
